Data published in patent US9034859B2, “Sulfated oxysterol and oxysterol sulfation by hydroxysterol sulfotransferase promote lipid homeostasis and liver proliferation” (Virginia Commonwealth University, priority 2011, dated 2015).

Columns and labels:
[1] = test system: LXR signaling pathway; test: Western blot of LXR and its target genes and PCNA in mouse liver (Example 3); format: in vivo, C57BL/6 mice; conditions: 5 mg/kg i.v.
Procedure: Cayman Chemical, Ann Arbor, Mich.); […] […] Metabolism. (Accepted)]. […] Cell lysates were prepared from frozen mouse liver tissues. Total proteins, 100 μg, were separated by 10% SDS-PAGE, and transferred to PVDF membrane (Millipore, Eschbom, Germany). […] Louis, Mo.) was used as a loading control. The immunoreactive bands were detected by Fujifilm Medical System (Fujifilm, Stamford, Conn.) and quantified by Advanced Image Data Analyzer (Aida Inc., Straubenhardt, Germany).

[2] = test system: primary rat hepatocytes (PRH); test: Western blot in primary rat hepatocytes (Example 4); format: cell-based; conditions: Ad-Control-infected group, T0901317 1.5 μM or 25HC 3 μM
Procedure: PRH were prepared as previously described (24). Briefly, parenchymal cells (3.5×10^6) were inoculated in 60-mm plastic Petri dishes coated with rat tail collagen. The plates contained 3 ml of Williams E culture media supplemented with thyroxine (1 μM), dexamethasone (0.1 μM), and penicillin (100 units/ml). Three hours after plating, culture medium was removed and fresh medium was added. Cells were then infected with Ad-SULT2B1b at a multiplicity (MOI) of 10 plaque forming units/cell (pfu/cell) or 100 nM of siRNA-SULT2B1b (ON-TARGET plus siRNA of rat SULT2B1b, Thermo Scientific Dharmacon, Lafayette, Colo.) as previously described (31). The Ad-Control and siRNA-Control (ON-TARGET plus negative control siRNA) were used as controls, respectively. Twenty four hours after infection, cells were treated with T0901317 (1.5 μM) or 25HC (3 μM) for another 24 hours. The cells were harvested at the timepoints as indicated in the text.
Cell lysates were prepared from frozen mouse liver tissues or PRH, and 50 μg of the total proteins were separated by 10% SDS-PAGE, transferred to polyvinylidene difluoride membrane (Millipore, Eschbom, Germany). Specific protein was probed with specific antibodies against PCNA, human SULT2B1b (Santa Cruz Biotechnology, Santa Cruz, Calif.), LXRα (Abcam, Cambridge, Mass.), ATP-binding cassette transporters 1 (ABCA1) (Abcam, Cambridge, Mass.), and SREBP1 (Santa Cruz Biotechnology, Santa Cruz, Calif.). β-Actin (Sigma-Aldrich, St. Louis, Mo.) was used as a loading control. Western analysis was performed by methods known in the art.

In the case of `O=S(=O)(c1ccccc1)N(CC(F)(F)F)c1ccc(C(O)(C(F)(F)F)C(F)(F)F)cc1` [T0901317, reference compound], the “25HC3S-induced PCNA expression” value ([1]; day 2) is reported as “significantly repressed”, the “expressions of LXR target genes ABCA1 and SREBP-1c” value ([1]; day 2, presence and absence of 25HC3S, vs vehicle) is reported as “induced” and the “LXR response gene expressions” value [2] is reported as “significantly increased”. The PCNA expression [2] was “decreased”.
